Data published in EP3666760B1, “5-THIOISTIDINE COMPOUNDS AND METHYLATED DERIVATIVES (OVOTHIOLS) AS INHIBITORS OF GAMMA-GLUTAMYL-TRANSPEPTIDASE (GGT) ACTIVITY” (Stazione Zoologica "Anton Dohrn", priority 2018, dated 2020).
Read-outs that look alike come from different tables or passages of the source.

Tests used:
[1] = molecular target: EqGGT (Equus caballus, UniProt A0A9L0SYL6); test: GGT activity assay (colorimetric, GpNA donor / glycyl-glycine acceptor), IC50; format: biochemical, horse
Experimental: (§1) GGT activity assay: GGT activity was determined by a colorimetric test. The analysis buffer contains 100 mM Tris-HCl pH 7.8 or PBS 1X pH 7.4. Each reaction contains 1 mM of γ-glutamyl-para-nitroanilide (GpNA) as a donor substrate and 40 mM glycyl-glycine (glygly) as an acceptor substrate. The enzyme GGT purified from murine tissues or human cells, or from equine sources (purchased from Sigma) was added at the end to start the test. The formation of the product, p-nitroaniline, was continuously monitored at room temperature at 405 nm using a Bio-Rad 680 microplate reader with the Microplate Manager 5.2 software (Bio-Rad). One unit of GGT activity was defined as the amount of GGT that released 1 µmοl of p-nitroaniline/min at room temperature. The molecules tested as inhibitors, Erg, DON and DTT were purchased by Sigma Aldrich.
(§2) The enzymatic activity assays were carried out using the Tate & Meister spectrophotometric assay, using the γ-glutamyl-para-nitroanilide chromogen (GpNA) as a donor substrate, glycyl-glycine as a substrate and a purified commercial GGT solution as a biocatalyst from horse (EqGGT) with a high % identity with the human one. These assays were also performed in the presence of GGT isolated directly from the hepatic mouse tissues and/or from human cell cultures (hGGT). The inhibition of EqGGT and hGGT by 5-thio and ovothiol A was compared with that of Erg and the GGT DON commercial inhibitor. […] Instead, the already known GGT inhibitors are toxic at much lower concentrations.

[2] = molecular target: GGT (Equus caballus, UniProt A0A9L0SYL6); test: Kinetics of GGT inhibition (Ki) varying donor GpNA or acceptor Gly-Gly concentration; format: biochemical, horse; details: for Ki: average of Michaelis-Menten and Lineweaver-Burk; for type of inhibition: both with respect to the acceptor substrate and to the donor substrate, Vmax decreases, km almost unchanged
GGT, sequence (A0A9L0SYL6 entry or part of it): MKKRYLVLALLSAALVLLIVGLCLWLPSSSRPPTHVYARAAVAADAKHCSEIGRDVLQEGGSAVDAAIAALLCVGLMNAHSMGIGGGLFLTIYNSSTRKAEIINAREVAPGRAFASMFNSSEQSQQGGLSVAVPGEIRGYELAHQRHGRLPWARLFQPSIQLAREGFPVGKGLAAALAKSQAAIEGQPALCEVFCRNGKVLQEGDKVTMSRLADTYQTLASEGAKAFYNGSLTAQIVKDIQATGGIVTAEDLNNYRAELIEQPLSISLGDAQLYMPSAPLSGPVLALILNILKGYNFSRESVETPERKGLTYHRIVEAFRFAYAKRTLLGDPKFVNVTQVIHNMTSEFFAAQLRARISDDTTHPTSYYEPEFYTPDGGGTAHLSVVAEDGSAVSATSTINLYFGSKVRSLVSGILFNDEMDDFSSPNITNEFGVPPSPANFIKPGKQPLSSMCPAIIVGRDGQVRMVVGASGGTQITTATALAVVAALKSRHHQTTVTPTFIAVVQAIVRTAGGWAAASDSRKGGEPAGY
Experimental: as §1, §2
The inhibition constants Ki and GGT inactivation rate for 5-thio and ovothiol A were determined by varying both the concentrations of the GpNA donor substrate and maintaining the Gly-Gly acceptor concentrations fixed and vice versa, as shown in Figure 2. Ki (dissociation constant related to E) was calculated as a function of Vmax. For all the compounds the Vmax decreases as the concentration of inhibitor increases, while the km remains almost unchanged.

[3] = test system: HEK293; test: Cell toxicity in human cell lines; format: cell-based; details: up to concentrations of 200 µM; HEK293 (renal embryonic origin)
[4] = test system: keratinocytes HaCat; test: Cell toxicity in human cell lines; format: cell-based; details: up to concentrations of 200 µM
[5] = read-out: Ki (GpNA), varying donor substrate GpNA, Gly-Gly fixed

EqGGT, sequence (A0A9L0SYL6 entry or part of it): as above

| SMILES | IC50 [1] [µM] | Ki [2, 5] [µM] | Ki ([2]; read-out: Ki (gly-gly), varying acceptor substrate Gly-Gly, GpNA fixed) [µM] | cell toxicity [3] | IC50 ([1]; concentration inducing 50% inhibition of GGT activity, 1 mM GpNA, 40 mM glycyl-glycine, ovothiol A and 5-thio as disulfide, read-out: IC50) [µM] | times more active than Erg and DON in inhibiting GGT activity ([1]; disulfide forms) | type of inhibition [2] | Ki ([2]; varying acceptor substrate Gly-Gly, GpNA fixed, read-out: Ki (gly-gly)) [µM] | Ki ([2]; varying donor substrate GpNA, Gly-Gly fixed, read-out: Ki (GpNA)) [µM] | cell toxicity [4] | IC50 ([1]; concentration inducing 50% inhibition of GGT activity, 1 mM GpNA, 40 mM glycyl-glycine, ovothiol A and 5-thio as disulfide) [µM] |
| --- | --- | --- | --- | --- | --- | --- | --- | --- | --- | --- | --- |
| [N-]=[N+]=CC(=O)CC[C@H](N)C(=O)O [DON, 6-diazo-5-oxo norleucine, reference compound] | 250 | 156 ± 15.3 | 200 ± 62.7 | – | – | – | – | – | – | – | – |
| NC(Cc1[nH]cnc1SSc1nc[nH]c1CC(N)C(=O)O)C(=O)O (stereo not shown) | – | – | – | no cell toxicity | 13 | 10-20 times | non-competitive inhibitors | 17.4 ± 6.1 | 6.9 ± 2.91 | no cell toxicity | – |
| C[N+](C)(C)C(Cc1cnc(S)[nH]1)C(=O)[O-] (stereo not drawn) [Erg, N-alpha-trimethyl-2-thiohistidine, reference compound] | – | 229 ± 53.9 | – | – | – | – | non-competitive inhibitors | – | – | – | 277 |
